In patent US6924309B2 (Children, Youth and Women's Health Service Incorporated, priority 1999, dated 2005):
In brackets after ≈: the same amount, converted by molar mass. Entries after “also recorded” stand apart in the source; their conditions may differ. Read-outs that look alike come from different tables or passages of the source.

Assays:
[1] = Reaction with tert-butyl hydroperoxide to the sulfoxide; type: physicochemical; details: CH2Cl2, RT, after 9 h
From the text: To further investigate the possible involvement of hydroperoxide-induced sulfoxide formation in the antioxidant behaviour of the γ-thia and β-thia fatty acids 18, 19, 106, 108, 109 and 112, compounds 108 and 109 (in a ratio of 1:1 in CH2Cl2) were allowed to react with tert-butyl hydroperoxide. [drawing 37]
The reaction was monitored by TLC and ^1H NMR analysis. […] The ^1H NMR spectrum of compound 114 contains two multiplets at δ2.88-3.07 and two doublets at δ3.63-3.86 corresponding to the methylene protons on the carbons adjacent to sulfur.

[2] = Petri-dish thin film autoxidation of arachidonic acid with thia fatty acids and sulfides (HPLC)
In short: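 Arachidonic acid mixed with each sulfur compound at different ratios, lauric acid as internal standard, cast as thin films on 80 mm glass Petri-dishes. Dishes kept under oxygen in a dark desiccator; residual compounds quantified after 1, 2, 3, 5 and 7 days by reverse-phase HPLC with refractive index detection.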

[3] = test system: Plasmodium falciparum isolates 3D7, FC27, K+; test: Radiometric (3H-hypoxanthine) assay on asexual blood stages of P. falciparum; type: cell-based; details: for EC50: Plasmodium falciparum, read-out: EC50 against P. falciparum
Method: Using the radiometric assay^(36), the effects of the Lx compounds were examined for antimalarial activity. The Plasmodium falciparum isolates used were 3D7, FC27, K^1 and K^+. These were maintained in human blood group O^+ erythrocytes essentially as described previously using RPM-1640 (HEPES modification) supplemented with 0.25% D-glucose, 0.2% Tess buffer (Sigma Chemical Co, Lt Louis, Mo.) and 10% heat inactivated (56° C., 20 min) human blood group AB serum. Cultures were maintained in tissue culture flasks (Corning, N.Y.) at 37° C. under an atmosphere of 1% 2, 5% CO2 in N2. P. falciparum cultures containing approximately 3.0:% parasitaemia were adjusted to 1×10^8 erythrocytes/ml. To 50 μl of the parasite-erythrocyte culture (5×10^6 erythrocytes) in wells of 96-well microdilution plates wvas added 50 μl of the designated concentration of fatty acid or equivalent amounts of solutions or media. The treated cultures were incubated at 37° C. for 4 h and then pulsed with 50 μl (2.5 μCi) of ^3H-hypoxanthine. After a further 18 h incubation the parasites-erythrocytes were harvested onto glass fibre filter papers using a cell harvester. The amount of radioactivity incorporated was measured in a β-counter. The results have been expressed as % inhibition of parasite growth i.e. the dpm in the fatty acid diluent−dpm in the fatty acid treated cultures/dpm in diluent×100.

TNF-α = TNF-α production by human peripheral blood leukocytes; type: cell-based; details: Leukocyte, stimulus S. aureus, read-out: % Inhibition (compared to control) of TNF-α
Method: (§1) The effects of the nitroalkanes (Lx1-Lx5) on lymphocyte activation and cytokine production were examined. The ability of the PUFA to suppress mitogen-induced proliferation in response to PHA and S. aureus, and to inhibit cytokine production (TNFα and IFNγ), was assessed.

Paw oedema = details: in vivo
Red blood cells = test: Incorporation of Lx3 into normal red blood cells; type: cell-based; details: 200 μg Lx3, 37° C., 4 h
Method: Red blood cells or parasitised red blood cells (K+ strain, 9.25% parasitaenia) (5×10^8 cells) were incubated with 200 μg of Lx3 in 10 mls of HBSS at 37° C. for 4 h. The incubate was centrifuged (3,000 rpm for 10 min) and the medium aspirated. The cell pellet was washed 3 times with 5 ml of HBSS with centrifugation. Lipids were extracted from the cell pellet and neutral lipids, phospholipids and unesterffied Lx3 were resolved by thin-layer chromatography. The neutral lipid and phospholipid samples were transesterified to release any bound Lx3. The amount of Lx3 associated with the unesterifield, neutral lipid and phospholipid fractions was quantitated by gas-liquid chromatography using nonadecanoic acid (nonadecylic acid (19:0)) methyl ester (48 nmol) as a reference standard. For definitive identification of Lx3 and possible products (elongation, de-saturation, shorter-chain products), a combined gas-liquid chromatography-mass spectrometry (GC-MS) technique was employed. FIG. 6 is the GC-MS (expanded view) of Lx3 isolated from parasitised RBC. The mass spectrum of each peak unambiguously identifies 19:0 and Lx3 (19:3(n-6)-N02) respectively. […] No Lx3 was esterified in neutral lipids and phospholipids (Table 4). It is important to note that parasitised red blood cells took up approximately 6 times more Lx3 than non-parasitised cells. […]

P. falciparum = details: 20 μg/ml
Method: Parasites were treated with 20 μg/ml of compound. Results are means of triplicate assays of one experiment and are consistent with that found in three experiments.

IFN-γ = IFN-γ production by human peripheral blood leukocytes; type: cell-based; details: Leukocyte, stimulus PHA, read-out: % Inhibition (compared to control) of IFN-γ
Method: as §1

P. berghei = type: in vivo; set-up: Parasitaemia: unit not given here; details: for Parasitaemia: 40 mg/kg from one day prior to infection, twice a day
Method: In other sets of experiments, the effects of Lx3 were examined in vivo in mice infected with P. berghei. FIG. 10 illustrates the effect of Lx3 on the level of P. berghei parasitaemia in the mice. Results are the means ±SEM of five mice per group. Mice were infected intraperitoneally with the parasite and when an appropriate parasitaemia was reached they were treated intravenously with 40 mg/kg weight of MP3.
Mice were treated at one day prior to infection with 2 doses of 40 mg/kg body weight and then another dose 60 min prior to infection (0 time) on the following day. The parasitaemia was checked 4 h later and at the times stipulated in the Table. The animals were treated with either DPC or Lx3 twice a day 30 min after taking a parasitaemia reading. The results are presented as mean ±SEM of parasitaelnia of 4 mice per group.

[4] = test system: parasitised red blood cells (K+ strain); test: Incorporation of Lx3 into parasitised red blood cells; type: cell-based, P. falciparum
Method: Red blood cells or parasitised red blood cells (K+ strain, 9.25% parasitaenia) (5×10^8 cells) were incubated with 200 μg of Lx3 in 10 mls of HBSS at 37° C. for 4 h. The incubate was centrifuged (3,000 rpm for 10 min) and the medium aspirated. The cell pellet was washed 3 times with 5 ml of HBSS with centrifugation. Lipids were extracted from the cell pellet and neutral lipids, phospholipids and unesterffied Lx3 were resolved by thin-layer chromatography. The neutral lipid and phospholipid samples were transesterified to release any bound Lx3. The amount of Lx3 associated with the unesterifield, neutral lipid and phospholipid fractions was quantitated by gas-liquid chromatography using nonadecanoic acid (nonadecylic acid (19:0)) methyl ester (48 nmol) as a reference standard. For definitive identification of Lx3 and possible products (elongation, de-saturation, shorter-chain products), a combined gas-liquid chromatography-mass spectrometry (GC-MS) technique was employed. FIG. 6 is the GC-MS (expanded view) of Lx3 isolated from parasitised RBC. The mass spectrum of each peak unambiguously identifies 19:0 and Lx3 (19:3(n-6)-N02) respectively. […] No Lx3 was esterified in neutral lipids and phospholipids (Table 4). It is important to note that parasitised red blood cells took up approximately 6 times more Lx3 than non-parasitised cells. […] The lack of derivatisation or incorporation of Lx3 into neutral lipids and phospholipids is almost certainly due to Lx3 not having a carboxylic acid group which is mandatory for the conversion of a fatty acid to its coenzyme A ester.

15-LO = target: T1, 15-LO (Glycine max, UniProt P08170); test: Effect on 15-LO catalysed oxidation of arachidonic acid; type: biochemical, soybean
T1 construct: purchased Sigma Chemical Company
T1 sequence (P08170 1-839): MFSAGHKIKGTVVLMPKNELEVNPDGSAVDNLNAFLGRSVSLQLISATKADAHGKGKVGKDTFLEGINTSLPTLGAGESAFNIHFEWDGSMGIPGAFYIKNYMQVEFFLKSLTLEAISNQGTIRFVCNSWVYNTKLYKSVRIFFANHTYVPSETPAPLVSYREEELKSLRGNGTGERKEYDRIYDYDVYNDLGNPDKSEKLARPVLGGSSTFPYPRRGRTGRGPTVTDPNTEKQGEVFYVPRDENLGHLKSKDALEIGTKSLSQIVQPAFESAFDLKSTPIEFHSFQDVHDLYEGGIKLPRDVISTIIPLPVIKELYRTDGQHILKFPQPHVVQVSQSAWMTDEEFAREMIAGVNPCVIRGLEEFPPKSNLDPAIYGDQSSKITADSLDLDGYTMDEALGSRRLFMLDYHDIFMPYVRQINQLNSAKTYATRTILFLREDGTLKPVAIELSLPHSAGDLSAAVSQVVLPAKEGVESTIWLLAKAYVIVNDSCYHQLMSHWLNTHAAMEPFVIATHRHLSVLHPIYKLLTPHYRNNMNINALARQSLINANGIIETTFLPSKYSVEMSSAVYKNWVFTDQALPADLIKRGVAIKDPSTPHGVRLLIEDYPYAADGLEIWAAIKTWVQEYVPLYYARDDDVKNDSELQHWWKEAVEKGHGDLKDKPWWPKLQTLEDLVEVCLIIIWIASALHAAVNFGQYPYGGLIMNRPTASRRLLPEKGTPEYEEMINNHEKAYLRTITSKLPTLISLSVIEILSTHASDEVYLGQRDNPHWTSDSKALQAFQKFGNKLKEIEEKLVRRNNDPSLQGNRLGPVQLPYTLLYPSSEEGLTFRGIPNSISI

[5] = ratio arachidonic acid:compound 1:1, 1 day
[6] = ratio arachidonic acid:compound 1:1, 2 days

## CCCCCCCCCCCCCCSCC(=O)O [Compound 109, 2-Tetradecylthioacetic acid]
[1]
  Conversion to the sulfoxide by tert-butyl hydroperoxide: 55%
[2]
  Antioxidant effect on autoxidation of arachidonic acid (in words): not significantly inhibited
[2]; [5]
  Arachidonic acid (%) recovered following autoxidation in the presence of the compound: 53%
  Compound (%) recovered following autoxidation with arachidonic acid: 50%
[2]; [6]
  Arachidonic acid (%) recovered following autoxidation in the presence of the compound: 10%
  Compound (%) recovered following autoxidation with arachidonic acid: 16%
[2]; ratio arachidonic acid:compound 1:1, 3 days
  Compound (%) recovered following autoxidation with arachidonic acid: 17%
[2]; ratio arachidonic acid:compound 1:1, 5 days
  Compound (%) recovered following autoxidation with arachidonic acid: 17%
[2]; ratio arachidonic acid:compound 1:1, 7 days
  Compound (%) recovered following autoxidation with arachidonic acid: 16%

## CCCCC/C=C\C/C=C\C/C=C\CCCCC[N+](=O)[O-] [Lx3, (z,z,z)-1-Nitro-6,9,12-octadecatriene]
[3]
  Antimalarial activity (in words): very active
[3]; 3D7, isolate FC27
  EC50: 6 µg/mL (≈ 20.4 µM)
[3]; 3D7, isolate K+
  EC50: 3 µg/mL (≈ 10.2 µM)
[3]; isolate 3D7
  EC50: 2 µg/mL (≈ 6.82 µM)
  Antimalarial activity on P. falciparum 3D7 (FIG. 1, in words): greatest activity
[3]; chloroquine resistant isolate
  Activity against a chloroquine resistant isolate: active
[3]; compound 20 μg/ml, presence of human serum
  Reduction of antimalarial activity by human serum: did not affect the activity; also recorded: not inhibited by serum
TNF-α
  inhibition at 20 µM: 48.2%
Paw oedema
  Effect in paw oedema: either inflammatory or anti-inflammatory
Red blood cells
  Recovered cellular Lx3, unesterified Lx3: 2.1 ± 0.2 % of total added
P. falciparum
  Morphology of parasites in treated cultures: degenerate mature rings, trophozoites and shizonts
IFN-γ
  inhibition at 20 µM: 37.6%
P. berghei; intravenous 40 mg/kg
  Tolerability in mice: tolerated Lx3 quite well
P. berghei; mice, 4 h after infection
  Parasitaemia: 0.18 ± 0.05
P. berghei; mice, 22 h after infection
  Parasitaemia: 0.30 ± 0.10
P. berghei; mice, 28 h after infection
  Parasitaemia: 0.14 ± 0.05
P. berghei; mice, 46 h after infection
  Parasitaemia: 0.40 ± 0.14
P. berghei; mice, single intravenous dose 40 mg/kg, within 5 h after injection
  Change in circulating parasites (parasitaemia): marked drop in circulating parasites
[4]; GC-MS
  Form of the compound taken up by the cells: remained exclusively in the unesterified form
[4]; either cell population, GC-MS
  Elongation, chain-shortening or de-saturation products detected: No elongation, chain-shortening or de-saturation products
[4]; parasitised red blood cells, 200 μg Lx3, 37° C., 4 h
  Recovered cellular Lx3, unesterified Lx3: 12.9 ± 0.4 % of total added
15-LO
  Effect on 15-LO catalysed oxidation of AA: Nil
